pIC50: −log10 of the molar value.
Test system: 494315-158-R-J1-PDC complex spheroid growth, percent test/control
Assay: Anticancer human tumor 494315-158-R-J1-PDC patient-derived soft tissue sarcoma cell line growth inhibition [Asc]
Conditions: for pIC50: curve of first compound; for viability, T/C: stronger effect = lower value
Outline: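 Tumor cells were grown as multicellular spheroids with stromal HUVEC and mesenchymal stem cells and treated singly or in combination. Concentrations fell in half-log steps from the clinical Cmax, or from 10 microM where none was known.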

[1] = second compound 0.01 µM, first compound 0.00316 µM
[2] = second compound 0.01 µM, first compound 0.01 µM
[3] = second compound 0.01 µM, first compound 0.0316 µM
[4] = second compound 0.01 µM, first compound 0.1 µM
[5] = second compound 0.0316 µM, first compound 0.00316 µM
[6] = second compound 0.0316 µM, first compound 0.01 µM
[7] = second compound 0.0316 µM, first compound 0.0316 µM
[8] = second compound 0.0316 µM, first compound 0.1 µM
[9] = second compound 0.1 µM, first compound 0.00316 µM
[10] = second compound 0.1 µM, first compound 0.01 µM
[11] = second compound 0.1 µM, first compound 0.0316 µM
[12] = second compound 0.1 µM, first compound 0.1 µM
[13] = second compound 0.316 µM, first compound 0.00316 µM
[14] = second compound 0.316 µM, first compound 0.01 µM
[15] = second compound 0.316 µM, first compound 0.0316 µM
[16] = second compound 0.316 µM, first compound 0.1 µM
[17] = second compound 1 µM, first compound 0.00316 µM
[18] = second compound 1 µM, first compound 0.01 µM
[19] = second compound 1 µM, first compound 0.0316 µM
[20] = second compound 1 µM, first compound 0.1 µM
[21] = second compound 0.01 µM, first compound 0.316 µM
[22] = second compound 0.01 µM, first compound 1 µM
[23] = second compound 0.0316 µM, first compound 0.316 µM
[24] = second compound 0.0316 µM, first compound 1 µM
[25] = second compound 0.1 µM, first compound 0.316 µM
[26] = second compound 0.1 µM, first compound 1 µM
[27] = second compound 0.316 µM, first compound 0.316 µM
[28] = second compound 0.316 µM, first compound 1 µM
[29] = second compound 1 µM, first compound 0.316 µM
[30] = second compound 1 µM, first compound 1 µM
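Also: compound exposure lasted seven days after spheroids formed for three days.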

SMILES: Cc1nc(N2CCC3(CC2)COC(C)C3N)c(CO)nc1Sc1ccnc(N)c1Cl (stereo not given) + CCN1C(C(=O)NC23CCC(C(=O)O)(CC2)CC3)C(c2cccc(Cl)c2F)C2(C(=O)Nc3cc(Cl)ccc32)C12CCCCC2
- pIC50 (second compound 0.03 µM): < 5.52
- pIC50 (second compound 0.0949 µM): 5.84
- pIC50 (second compound 0.3 µM): 6.04
- pIC50 (second compound 0.949 µM): 6.22
- pIC50 (second compound 3 µM): 6.14
- viability, T/C (second compound 0.03 µM, first compound 0.00949 µM): 102%
- viability, T/C (second compound 0.03 µM, first compound 0.03 µM): 90.3%
- viability, T/C (second compound 0.03 µM, first compound 0.0949 µM): 70.8%
- viability, T/C (second compound 0.03 µM, first compound 0.3 µM): 64.2%
- viability, T/C (second compound 0.03 µM, first compound 0.949 µM): 51.5%
- viability, T/C (second compound 0.03 µM, first compound 3 µM): 58.4%
- viability, T/C (second compound 0.0949 µM, first compound 0.00949 µM): 83.8%
- viability, T/C (second compound 0.0949 µM, first compound 0.03 µM): 83.6%
- viability, T/C (second compound 0.0949 µM, first compound 0.0949 µM): 72%
- viability, T/C (second compound 0.0949 µM, first compound 0.3 µM): 69%
- viability, T/C (second compound 0.0949 µM, first compound 0.949 µM): 59.5%
- viability, T/C (second compound 0.0949 µM, first compound 3 µM): 36.4%
- viability, T/C (second compound 0.3 µM, first compound 0.00949 µM): 79.6%
- viability, T/C (second compound 0.3 µM, first compound 0.03 µM): 89.9%
- viability, T/C (second compound 0.3 µM, first compound 0.0949 µM): 81.7%
- viability, T/C (second compound 0.3 µM, first compound 0.3 µM): 68.3%
- viability, T/C (second compound 0.3 µM, first compound 0.949 µM): 50.4%
- viability, T/C (second compound 0.3 µM, first compound 3 µM): 37.1%
- viability, T/C (second compound 0.949 µM, first compound 0.00949 µM): 89.3%
- viability, T/C (second compound 0.949 µM, first compound 0.03 µM): 87.2%
- viability, T/C (second compound 0.949 µM, first compound 0.0949 µM): 76.9%
- viability, T/C (second compound 0.949 µM, first compound 0.3 µM): 63.4%
- viability, T/C (second compound 0.949 µM, first compound 0.949 µM): 40%
- viability, T/C (second compound 0.949 µM, first compound 3 µM): 37.6%
- viability, T/C (second compound 3 µM, first compound 0.00949 µM): 80.9%
- viability, T/C (second compound 3 µM, first compound 0.03 µM): 86%
- viability, T/C (second compound 3 µM, first compound 0.0949 µM): 78.2%
- viability, T/C (second compound 3 µM, first compound 0.3 µM): 62.2%
- viability, T/C (second compound 3 µM, first compound 0.949 µM): 47.1%
- viability, T/C (second compound 3 µM, first compound 3 µM): 32.5%

SMILES: Cn1ncnc1[C@H]1c2n[nH]c(=O)c3cc(F)cc(c23)N[C@@H]1c1ccc(F)cc1 + CNC(C)C(=O)NC1CN(S(=O)(=O)c2cccc(S(=O)(=O)N3CCC4CCC(C(=O)NC(c5ccccc5)c5ccccc5)N4C(=O)C(NC(=O)C(C)NC)C3)c2)CCC2CCC(C(=O)NC(c3ccccc3)c3ccccc3)N2C1=O
- pIC50 (second compound 0.01 µM): 7.46
- pIC50 (second compound 0.0316 µM): 8.50
- pIC50 (second compound 0.1 µM): 9.50
- pIC50 (second compound 0.316 µM): > 9.50
- pIC50 (second compound 1 µM): > 9.50
- viability, T/C (second compound 0.01 µM, first compound 0.000316 µM): 65.8%
- viability, T/C (second compound 0.01 µM, first compound 0.001 µM): 73%
- viability, T/C [1]: 59.1%
- viability, T/C [2]: 53.5%
- viability, T/C [3]: 49.6%
- viability, T/C [4]: 46.1%
- viability, T/C (second compound 0.0316 µM, first compound 0.000316 µM): 56.5%
- viability, T/C (second compound 0.0316 µM, first compound 0.001 µM): 59.9%
- viability, T/C [5]: 50.1%
- viability, T/C [6]: 36.8%
- viability, T/C [7]: 38%
- viability, T/C [8]: 34.1%
- viability, T/C (second compound 0.1 µM, first compound 0.000316 µM): 44.1%
- viability, T/C (second compound 0.1 µM, first compound 0.001 µM): 53.4%
- viability, T/C [9]: 49.6%
- viability, T/C [10]: 32%
- viability, T/C [11]: 33.4%
- viability, T/C [12]: 31.2%
- viability, T/C (second compound 0.316 µM, first compound 0.000316 µM): 49.9%
- viability, T/C (second compound 0.316 µM, first compound 0.001 µM): 38.8%
- viability, T/C [13]: 33.7%
- viability, T/C [14]: 29.4%
- viability, T/C [15]: 27.2%
- viability, T/C [16]: 26.4%
- viability, T/C (second compound 1 µM, first compound 0.000316 µM): 41.1%
- viability, T/C (second compound 1 µM, first compound 0.001 µM): 40.1%
- viability, T/C [17]: 38.5%
- viability, T/C [18]: 26.9%
- viability, T/C [19]: 29%
- viability, T/C [20]: 22.6%

SMILES: O=C(c1cc(Cc2n[nH]c(=O)c3ccccc23)ccc1F)N1CCN(C(=O)C2CC2)CC1 + CNC(C)C(=O)NC1CN(S(=O)(=O)c2cccc(S(=O)(=O)N3CCC4CCC(C(=O)NC(c5ccccc5)c5ccccc5)N4C(=O)C(NC(=O)C(C)NC)C3)c2)CCC2CCC(C(=O)NC(c3ccccc3)c3ccccc3)N2C1=O
- pIC50 (second compound 0.01 µM): 5.61
- pIC50 (second compound 0.0316 µM): 6.42
- pIC50 (second compound 0.1 µM): > 7.50
- pIC50 (second compound 0.316 µM): > 7.50
- pIC50 (second compound 1 µM): > 7.50
- viability, T/C [3]: 66.3%
- viability, T/C [4]: 73.2%
- viability, T/C [21]: 60.3%
- viability, T/C [22]: 70.3%
- viability, T/C (second compound 0.01 µM, first compound 3.16 µM): 44.8%
- viability, T/C (second compound 0.01 µM, first compound 10 µM): 27.5%
- viability, T/C [7]: 51.8%
- viability, T/C [8]: 52%
- viability, T/C [23]: 52.1%
- viability, T/C [24]: 43.9%
- viability, T/C (second compound 0.0316 µM, first compound 3.16 µM): 41.9%
- viability, T/C (second compound 0.0316 µM, first compound 10 µM): 20%
- viability, T/C [11]: 41%
- viability, T/C [12]: 46.4%
- viability, T/C [25]: 46.3%
- viability, T/C [26]: 39.1%
- viability, T/C (second compound 0.1 µM, first compound 3.16 µM): 33.2%
- viability, T/C (second compound 0.1 µM, first compound 10 µM): 19.8%
- viability, T/C [15]: 37.2%
- viability, T/C [16]: 38%
- viability, T/C [27]: 42.8%
- viability, T/C [28]: 35.8%
- viability, T/C (second compound 0.316 µM, first compound 3.16 µM): 27.5%
- viability, T/C (second compound 0.316 µM, first compound 10 µM): 14.3%
- viability, T/C [19]: 33.8%
- viability, T/C [20]: 39.4%
- viability, T/C [29]: 40.2%
- viability, T/C [30]: 31.8%
- viability, T/C (second compound 1 µM, first compound 3.16 µM): 22.3%
- viability, T/C (second compound 1 µM, first compound 10 µM): 13.6%

SMILES: O=C(c1ccc(F)c(F)c1Nc1ccc(I)cc1F)N1CC(O)([C@@H]2CCCCN2)C1 + CNC(C)C(=O)NC1CN(S(=O)(=O)c2cccc(S(=O)(=O)N3CCC4CCC(C(=O)NC(c5ccccc5)c5ccccc5)N4C(=O)C(NC(=O)C(C)NC)C3)c2)CCC2CCC(C(=O)NC(c3ccccc3)c3ccccc3)N2C1=O
- pIC50 (second compound 0.01 µM): < 6.00
- pIC50 (second compound 0.0316 µM): 6.03
- pIC50 (second compound 0.1 µM): < 6.00
- pIC50 (second compound 0.316 µM): > 8.50
- pIC50 (second compound 1 µM): > 8.50
- viability, T/C [1]: 83.5%
- viability, T/C [2]: 75.5%
- viability, T/C [3]: 85.8%
- viability, T/C [4]: 96.7%
- viability, T/C [21]: 97.3%
- viability, T/C [22]: 62.9%
- viability, T/C [5]: 72.8%
- viability, T/C [6]: 68.3%
- viability, T/C [7]: 74.3%
- viability, T/C [8]: 93.1%
- viability, T/C [23]: 87.8%
- viability, T/C [24]: 47.9%
- viability, T/C [9]: 53.2%
- viability, T/C [10]: 61.4%
- viability, T/C [11]: 65.8%
- viability, T/C [12]: 87.5%
- viability, T/C [25]: 92.7%
- viability, T/C [26]: 59.9%
- viability, T/C [13]: 46.7%
- viability, T/C [14]: 60.3%
- viability, T/C [15]: 57.2%
- viability, T/C [16]: 67.5%
- viability, T/C [27]: 72.2%
- viability, T/C [28]: 58.3%
- viability, T/C [17]: 47.9%
- viability, T/C [18]: 52%
- viability, T/C [19]: 67.1%
- viability, T/C [20]: 66.3%
- viability, T/C [29]: 76.2%
- viability, T/C [30]: 46.7%

From PubChem BioAssay AID1963420 (Molecular Pharmacology Branch, DTP, NCI, 2024)
